Laboratory results published in patent US20220315539A1, “PHENAZINE DERIVATIVE AND USE THEREOF FOR THE TREATMENT OF CANCER” (CENTRE NATIONAL DE LA RECHERCHE SCIENTIFIQUE, priority 2019, published 2022).

Tests used:
[1] = Fluorescence quantum yield in acetonitrile; assay type: physicochemical; settings: for quantum yield of fluorescence ϕf: in MeCN, excitation at 483 nm, emission 637 nm (II) or 550 nm (II-H), reference tetraphenylporphyrin
From the text: The inventors then set out to measure the value ϕf of the quantum yield of fluorescence of the following compound taken up in acetonitrile
To do this, the inventors measured the absorbance (relative intensity) as a function of the wavelength (in nm) in the presence of increasing doses of 1,8-[…] (DBU—0 to 2 equivalents).
Phenazinium II and its II-H conjugate base fluoresce in MeCN at neutral or basic pH. […] The reference used for the calculation of the fluorescence quantum yield is tetraphenylporphyrin in acetonitrile (ϕf=0.15).
Calculation of ϕ: It is determined by measuring the emission intensity of a solution of known concentration; the reference used to calculate the fluorescence quantum yield here is tetraphenylporphyrin in acetonitrile (ϕf=0.15).

MCF-7 tumor cells = assay: Internalization kinetics with CLARIOstar plate reader; assay type: cell-based, human; settings: MCF-7, in less than 24 hours
Method: Data are percent internalization (remaining fluorescence/total fluorescence) as a function of time in hours. Data are means of three experiments±standard deviation.
The internalization kinetics were carried out with a CLARIOstar reader in order to quantify the internalization of the compound in the MCF-7 tumor cells. The values, corresponding to the ratio of the residual fluorescence/the total fluorescence, are presented in the form of means of three experiments, ±the standard deviation.

[2] = Singlet oxygen (1O2) production quantum yield; assay type: physicochemical
Method: The absorption spectra were measured with a Perkin-Elmer double beam UV-visible spectrophotometer (Lambda EZ 210). The fluorescence spectrum was measured with a Fluorolog FL3-222 spectrofluorimeter (Horiba Jobin Yvon, Longjumeau, France) equipped with a 450 W xenon arc lamp, a thermostated compartment (25° C.), a photomultiplier UV-visible R928 ([…] Japan) and an InGaAs infrared detector cooled with liquid nitrogen (DSS-16A020L Electro-Optical System Inc, Phoenixville, Pa., USA). The excitation beam is separated by an SPEX dual grating monochromator (1200 lines/mm blazed at 330 nm). The fluorescence was measured by the UV-Visible detector via the SPEX double grating emission monochromator (1200 lines/mm blazed at 500 nm). The production of singlet oxygen was measured by the infrared detector via the SPEX double grating emission monochromator (600 lines/mm blazed at 1 μm). All spectra were measured using 4-sided quartz cuvettes. The absorbance values at the excitation wavelength of the references and samples have been adjusted to approximately 0.2.
By this method, the inventors were able to measure the quantum yield ϕΔ, which is 0.11 for the compound

MCF7 cells = assay: One-photon photodynamic therapy in vitro, MTT viability; assay type: cell-based, human; settings: MCF7, 100 nM, 5 h incubation, one-photon irradiation (λirrad.=514 nm), MTT two days later
Method: FIG. […] Two days later, the cells were subjected to a colorimetric cell viability assay (MTT). The experiment was carried out 3 times.
The inventors tested the effect of the compounds according to the invention in photodynamic therapy. MCF7 cells were incubated with the compound of formula
[…] Two days later, the cells were subjected to a colorimetric cell viability assay (MTT).

MCF-7 cells [3] = assay: Two-photon photodynamic therapy in vitro; assay type: cell-based, human; settings: two-photon λirrad.=810 nm, irradiation 5 seconds, 100 nM
Method: As a control, untreated MCF7 cells without irradiation (A1), after irradiation at 790 nm (B1) or 810 nm (C1) are presented. […] Data are means of three experiments±standard deviation.
Two-photon photodynamic therapy (λirrad.=810 nm) has shown very encouraging results, since nearly 50% of tumor cells are killed without optimization (irradiation for only 5 seconds at a very low concentration of 100 nM of compound according to the invention).

[4] = test system: healthy donor fibroblasts; assay: Internalization by flow cytometry (red fluorescent cells); assay type: cell-based; settings: 0.5 nM
Method: by healthy living cells of the fibroblast type. Cells were treated with 0.5 nM compound for 1, 3, 6 or 24 h and red fluorescence was measured by flow cytometry. […] The x-axis represents the incubation time in hours and the y-axis the percentage of red fluorescent cells.
(§1) To do this, MCF-7 cells or healthy donor fibroblasts have been treated or not with 0.5 nM of compound of formula
(§2) for 1, 3, 6 or 24 h, and cell fluorescence was assessed by flow cytometry by detecting the number of cells with red fluorescence.

MCF-7 cells [5] = assay: as above; assay type: cell-based, human; settings: MCF-7, 0.5 nM
Method: by live MCF-7 cancer cells. Cells were treated with 0.5 nM compound for 1, 3, 6 or 24 h and red fluorescence was measured by flow cytometry. […] The x-axis represents the incubation time in hours and the y-axis the percentage of red fluorescent cells.
as §1, §2

Structure (SMILES): CCCCCCCCNc1ccc2nc3cc(NC(C)(C)C)c(=N)cc-3n(CCCCCCCC)c2c1 [II-H]
- quantum yield of fluorescence ϕf [1]: 0.08

Structure (SMILES): CCCCCCCCNc1ccc2nc3cc(NC(C)(C)C)c(N)cc3[n+](CCCCCCCC)c2c1 [II]
- percent internalization (compound penetrating the cell) (MCF-7 tumor cells): 10%
- quantum yield of fluorescence ϕf [1]: 0.76
- brightness (B=ε×ϕ) ([1]; in acetonitrile): about 50000

Structure (SMILES): CCCCCCCCNc1ccc2nc3cc(NC(C)(C)C)c(N)cc3[n+](CCCCCCCC)c2c1 [drawing 44]
- singlet oxygen quantum yield ϕΔ [2]: 0.11

Structure (SMILES): CCCCCCCCNc1ccc2nc3cc(NC(C)(C)C)c(N)cc3[n+](CCCCCCCC)c2c1 [drawing 45]
- tumor cells killed (MCF7 cells): 98%
- tumor cells killed (MCF-7 cells [3]): ~50%

Structure (SMILES): CCCCCCCCNc1ccc2nc3cc(NC(C)(C)C)c(N)cc3[n+](CCCCCCCC)c2c1 [drawing 47]
- cells that have internalized the compound ([4]; 6 h incubation): 18%
- cells that have internalized the compound ([4]; 24 h incubation): 24%
- cells that have internalized the compound (MCF-7 cells [5]; 6 h incubation): 46%
- cells that have internalized the compound (MCF-7 cells [5]; 24 h incubation): 90%
